ChEMBL document CHEMBL3351640, “Design, regioselective synthesis and cytotoxic evaluation of 2-aminoimidazole-quinoline hybrids against cancer and primary endothelial cells” (Eur J Med Chem, 2014)

How the values were obtained:
[1] = Cytotoxicity against human HCT116 cells after 48 hrs by MTT assay; type: functional, cell-based; settings: HCT-116, 48 h
HUVEC = test: Cytotoxicity against HUVEC cells after 48 hrs by MTT assay; type: cell-based; settings: Homo sapiens
MDA-MB-231 = test: Cytotoxicity against human MDA-MB-231 cells after 48 hrs by MTT assay; type: functional, cell-based; settings: MDA-MB-231, 48 h
[2] = Cytotoxicity against human DLD1 cells after 48 hrs by MTT assay; type: functional, cell-based; settings: DLD-1, 48 h

SMILES	IC50 [1]	IC50 (HUVEC)	IC50 (MDA-MB-231)	IC50 [2]
Cc1ccc(-c2cn(/N=C/c3cc4cc(C)ccc4nc3Cl)c(N)n2)cc1	39.6 µM	18 µM	22.3 µM	25.2 µM
COc1cccc2c1C(=O)c1c(O)c3c(c(O)c1C2=O)C[C@@](O)(C(=O)CO)C[C@@H]3O[C@H]1C[C@H](N)[C@H](O)[C@H](C)O1 [DOXORUBICIN]	0.34 µM	–	1.47 µM	0.84 µM
Cc1ccc(-c2cn(/N=C/c3cc4ccccc4nc3Cl)c(N)n2)cc1	> 50 µM	> 50 µM	> 50 µM	> 50 µM
Cc1ccc2nc(Cl)c(/C=N/n3cc(-c4ccc5ccccc5c4)nc3N)cc2c1	27.4 µM	11.3 µM	35.6 µM	10.2 µM
Nc1nc(-c2ccc(Br)cc2)cn1/N=C/c1cc2ccccc2nc1Cl	> 50 µM	11.9 µM	> 50 µM	23.9 µM
Cc1ccc2nc(Cl)c(/C=N/n3cc(-c4ccc(Br)cc4)nc3N)cc2c1	49.9 µM	13.4 µM	38.2 µM	39.3 µM
Cc1ccc2nc(Cl)c(/C=N/n3cc(-c4cccc5ccccc45)nc3N)cc2c1	5.84 µM	9.58 µM	> 50 µM	8.3 µM
Cc1ccc2nc(Cl)c(/C=N/n3cc(-c4ccccc4)nc3N)cc2c1	7.12 µM	41.5 µM	48.1 µM	8.79 µM
Cc1ccc2nc(Cl)c(/C=N/n3cc(-c4ccc(Cl)cc4)nc3N)cc2c1	> 50 µM	38.5 µM	35.2 µM	38.9 µM
Nc1nc(-c2cccc3ccccc23)cn1/N=C/c1cc2ccccc2nc1Cl	6.34 µM	> 50 µM	> 50 µM	9.48 µM
Nc1nc(-c2cccs2)cn1/N=C/c1cc2ccccc2nc1Cl	7.22 µM	10.2 µM	> 50 µM	10.3 µM
Nc1nc(-c2ccc3ccccc3c2)cn1/N=C/c1cc2ccccc2nc1Cl	> 50 µM	36.2 µM	> 50 µM	> 50 µM
COc1ccc(-c2cn(/N=C/c3cc4cc(C)ccc4nc3Cl)c(N)n2)cc1	> 50 µM	12.2 µM	23.6 µM	25.7 µM
Cc1ccc2nc(Cl)c(/C=N/n3cc(-c4cccs4)nc3N)cc2c1	7.71 µM	38 µM	> 50 µM	8.99 µM
Nc1nc(-c2ccc(Cl)cc2)cn1/N=C/c1cc2ccccc2nc1Cl	> 50 µM	28 µM	> 50 µM	> 50 µM
COc1ccc(-c2cn(/N=C/c3cc4ccccc4nc3Cl)c(N)n2)cc1	31.8 µM	12.4 µM	> 50 µM	> 50 µM
Nc1nc(-c2ccccc2)cn1/N=C/c1cc2ccccc2nc1Cl	6.92 µM	46.7 µM	49 µM	16.4 µM
